Measured values: patent publication US11549123B2, “Plant EPSP synthases and methods of use” (PIONEER HI-BRED INTERNATIONAL, INC., priority 2015, dated 2023)
Substitutions are numbered along the chain they refer to.

Key:
Format in all cases: biochemical
[1] = molecular target: T1, Zea mays EPSPS, native, SEQ ID NO:2 (Zea mays, UniProt O24566); assay: Rapid two-rate method for (kcat/KM)*KI (30 uM PEP, with or without 1 mM glyphosate), native maize; details: Zm native, [E] 0.007 uM, [Gly] 0.5 uM
T1 construct: E. coli BL21(DE3), Ni-NTA purified
T1 sequence (O24566 with tags, fused parts or gaps): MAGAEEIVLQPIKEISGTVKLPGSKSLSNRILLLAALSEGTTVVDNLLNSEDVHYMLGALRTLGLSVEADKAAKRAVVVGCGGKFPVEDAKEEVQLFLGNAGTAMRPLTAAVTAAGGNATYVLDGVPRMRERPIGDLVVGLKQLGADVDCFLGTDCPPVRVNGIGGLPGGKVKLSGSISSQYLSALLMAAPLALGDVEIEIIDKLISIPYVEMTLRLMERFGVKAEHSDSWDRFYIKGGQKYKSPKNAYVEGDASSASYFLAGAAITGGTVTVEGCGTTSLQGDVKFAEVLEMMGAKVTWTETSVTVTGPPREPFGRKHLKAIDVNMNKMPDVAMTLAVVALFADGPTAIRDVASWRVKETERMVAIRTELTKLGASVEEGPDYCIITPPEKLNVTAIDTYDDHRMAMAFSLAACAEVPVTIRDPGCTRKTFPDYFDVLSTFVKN
Text: In the Michaelis-Menten equation for steady state reaction velocity with competitive inhibition, the term (kcat/KM)*KI cannot be isolated due to the KM and [S] terms in the denominator. However, if two rate measurements are made at different inhibitor concentrations, those terms can be eliminated by subtraction and (kcat/KM)*KI isolated, as follows:
[formula] where v0 and v1 are initial velocities without and with inhibitor but at the same substrate and enzyme concentrations. Although Equations 2 and 3 are equally valid, to generate the data in Table 1, rate measurement was performed with and without inhibitor using Equation 3. Source of Reagents, Enzyme and Variants
EPSPS activity was determined by quantifying the phosphate generated by the reaction. Release of phosphate was coupled to reaction with MESG, catalyzed by purine-nucleoside phosphorylase, using standard methods. The absorbance change that occurs was monitored continuously at 360 nm, where the extinction is 11,200 M-1 cm-1, with a Spectramax plate reader (Molecular Devices). […] The enzyme concentration was adjusted so as to generate sufficient signal without exceeding the limit for linear initial reaction rates. […]
There are several practical considerations for accurately estimating (kcat/KM)*KI with the rapid method. […] Conditions can be set so that variants with a pre-determined minimal fitness level are accurately quantified. […]

[2] = molecular target: Zea mays EPSPS variant 278V (Zea mays, UniProt O24566, T277V); assay: EPSPS reaction rate with or without 10 uM glyphosate, 278V; details: pH 7; read-out: Reaction rate with 10 μM glyph, % no glyph; note: 50 µM PEP and S3P
Zea mays EPSPS variant 278V, sequence (O24566 entry or part of it T277V): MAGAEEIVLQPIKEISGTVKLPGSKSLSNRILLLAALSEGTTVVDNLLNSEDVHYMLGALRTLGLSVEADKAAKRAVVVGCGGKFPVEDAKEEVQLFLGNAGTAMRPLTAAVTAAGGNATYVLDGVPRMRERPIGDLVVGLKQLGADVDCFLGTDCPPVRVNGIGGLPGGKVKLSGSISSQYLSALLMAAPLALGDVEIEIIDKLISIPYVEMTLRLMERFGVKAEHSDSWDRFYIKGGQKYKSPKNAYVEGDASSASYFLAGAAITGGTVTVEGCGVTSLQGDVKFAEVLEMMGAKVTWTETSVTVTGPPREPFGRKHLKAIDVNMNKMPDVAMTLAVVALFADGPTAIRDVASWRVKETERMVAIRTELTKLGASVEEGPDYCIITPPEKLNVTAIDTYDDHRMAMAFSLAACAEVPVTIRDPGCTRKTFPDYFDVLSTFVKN

[3] = molecular target: T2, Zea mays EPSPS variant Zm-P107S (Zea mays, UniProt O24566, P106S); assay: Rapid two-rate method for (kcat/KM)*KI, Zm-P107S
T2 construct: native maize plus P107S; E. coli BL21(DE3), Ni-NTA purified
T2 sequence (O24566 with tags, fused parts or gaps P106S): T1 sequence (O24566 with tags, fused parts or gaps) with P107S
Text: There are several practical considerations for accurately estimating (kcat/KM)*KI with the rapid method. […] 2) The inhibitor concentration must be adjusted so as to obtain a degree of inhibition that minimally amplifies the error in the term v0-vi in Equation 3. If inhibition is too little, v0-vi will be small, and the error in the multiplier vi×v0/(v0-vi) will be large. […] 3) Substrate concentration should be set at the approximate KM of the parental variant(s), subject to the sensitivity of the assay. High substrate concentration obscures sensitivity to the inhibitor and reduces stringency for capturing improvements in KM. Depending on the necessity for speed, there exists opportunity for customizing enzyme and inhibitor concentrations. […] The rapid method was repeated for those and obtained data that correlated better with data obtained by substrate saturation analysis. For screening purposes however, that correlation step is not necessary. Conditions can be set so that variants with a pre-determined minimal fitness level are accurately quantified.
In Table 15, parameters above the heavy line for the rapid method were obtained under standard conditions. For variants shown below the heavy line, the rapid analysis was repeated with enzyme or glyphosate concentrations adjusted as needed to generate sufficient signal within the limits for linear initial rates.

[4] = molecular target: T3, Zea mays EPSPS variant Zm-T103A (Zea mays, UniProt O24566, T102A); assay: Substrate saturation kinetic analysis with glyphosate, Zm-T103A
T3 construct: native maize plus T103A; E. coli BL21(DE3), Ni-NTA purified
T3 sequence (O24566 with tags, fused parts or gaps T102A): T1 sequence (O24566 with tags, fused parts or gaps) with T103A

O=C(O)CNCP(=O)(O)O [glyphosate, N-phosphonomethylglycine]
(kcat/KM)*KI [1]: 11 | activity at 10 µM [2]: 3.25% | (kcat/KM)*KI ([3]; rapid method repeated, [E] 0.007 uM, [Gly] 5 uM): 40 | (kcat/KM)*KI ([3]; rapid method, [E] 0.07 uM, [Gly] 1000 uM): 72 | Ki [4]: 208 µM | (kcat/KM)*KI ([4]; substrate saturation, Zm-T103A): 321
